Data on 20 molecules can be found in US10479780B2, “Aminopyrazole derivatives” (Chugai Seiyaku Kabushiki Kaisha, priority 2015, dated 2019).

pIC50: −log10 of the molar value.

Holding throughout (format): biochemical
The target in assay [1] is T1, human Yes1 enzyme (Homo sapiens, UniProt P07947).
T1 construct: made in house
Put plainly: Yes1 enzyme inhibitory activity (time-resolved fluorometry, biotinylated peptide phosphorylation). The settings on record: biotinylated peptide phosphorylation, read-out: YES_IC50. In outline:
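Inhibition was expressed against a compound-free control to give IC50, using TR-FRET read-out (Eu-cryptate anti-pTyr antibody, streptavidin-XL665).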

Assay [2] addresses T2, human Src enzyme (Homo sapiens, UniProt P12931).
T2 construct: purchased Carna Biosciences, Inc. 08-173
In words: Src enzyme inhibitory activity (time-resolved fluorometry, biotinylated peptide phosphorylation). The settings on record: biotinylated peptide phosphorylation, read-out: SRC_IC50. In outline: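 Compounds were tested for blocking tyrosine phosphorylation of a biotinylated peptide substrate by recombinant human Src. Phosphorylated product was quantified by time-resolved fluorometry using europium cryptate and XL665 conjugates, and IC50 was calculated against the compound-free control.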

Assay [3] concerns the target T3, human Lck enzyme (Homo sapiens, UniProt P06239).
T3 construct: purchased Carna Biosciences, Inc. 08-170
Put plainly: Lck enzyme inhibitory activity (time-resolved fluorometry, biotinylated peptide phosphorylation). The conditions noted are these: biotinylated peptide phosphorylation, read-out: LCK_IC50. In outline:
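Readout pairs a europium cryptate-labelled anti-phosphotyrosine antibody with XL665-streptavidin, measured by time-resolved fluorescence. IC50 derived from percent inhibition against untreated controls.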

T2 sequence (P12931 whole entry): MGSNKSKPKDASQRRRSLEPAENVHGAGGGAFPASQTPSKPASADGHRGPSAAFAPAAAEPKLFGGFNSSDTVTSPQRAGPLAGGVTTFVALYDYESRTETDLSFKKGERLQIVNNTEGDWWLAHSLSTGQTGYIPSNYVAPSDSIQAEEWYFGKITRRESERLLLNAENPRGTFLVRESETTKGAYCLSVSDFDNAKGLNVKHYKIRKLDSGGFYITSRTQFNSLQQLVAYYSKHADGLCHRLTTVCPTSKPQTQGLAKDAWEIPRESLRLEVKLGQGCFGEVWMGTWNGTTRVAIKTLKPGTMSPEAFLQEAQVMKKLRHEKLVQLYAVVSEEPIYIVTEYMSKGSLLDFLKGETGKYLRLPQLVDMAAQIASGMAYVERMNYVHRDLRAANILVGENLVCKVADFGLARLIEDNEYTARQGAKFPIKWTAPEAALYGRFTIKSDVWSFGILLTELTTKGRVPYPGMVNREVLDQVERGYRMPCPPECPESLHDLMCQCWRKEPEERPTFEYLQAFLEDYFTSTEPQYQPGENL
T1 sequence (P07947 whole entry): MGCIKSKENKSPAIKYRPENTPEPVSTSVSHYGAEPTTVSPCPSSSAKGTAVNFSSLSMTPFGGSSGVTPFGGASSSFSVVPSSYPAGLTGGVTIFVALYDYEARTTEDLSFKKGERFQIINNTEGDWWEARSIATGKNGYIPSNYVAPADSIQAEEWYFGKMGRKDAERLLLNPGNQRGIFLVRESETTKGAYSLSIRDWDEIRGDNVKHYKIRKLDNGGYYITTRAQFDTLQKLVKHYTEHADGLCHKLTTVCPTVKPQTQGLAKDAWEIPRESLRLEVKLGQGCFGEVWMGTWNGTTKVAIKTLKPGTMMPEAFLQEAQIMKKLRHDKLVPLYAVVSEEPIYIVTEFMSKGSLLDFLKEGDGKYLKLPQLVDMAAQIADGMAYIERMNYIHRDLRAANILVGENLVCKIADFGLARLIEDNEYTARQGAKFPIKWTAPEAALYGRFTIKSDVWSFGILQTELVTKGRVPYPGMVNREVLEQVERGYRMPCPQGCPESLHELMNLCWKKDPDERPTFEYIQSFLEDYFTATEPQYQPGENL
T3 sequence (P06239 whole entry): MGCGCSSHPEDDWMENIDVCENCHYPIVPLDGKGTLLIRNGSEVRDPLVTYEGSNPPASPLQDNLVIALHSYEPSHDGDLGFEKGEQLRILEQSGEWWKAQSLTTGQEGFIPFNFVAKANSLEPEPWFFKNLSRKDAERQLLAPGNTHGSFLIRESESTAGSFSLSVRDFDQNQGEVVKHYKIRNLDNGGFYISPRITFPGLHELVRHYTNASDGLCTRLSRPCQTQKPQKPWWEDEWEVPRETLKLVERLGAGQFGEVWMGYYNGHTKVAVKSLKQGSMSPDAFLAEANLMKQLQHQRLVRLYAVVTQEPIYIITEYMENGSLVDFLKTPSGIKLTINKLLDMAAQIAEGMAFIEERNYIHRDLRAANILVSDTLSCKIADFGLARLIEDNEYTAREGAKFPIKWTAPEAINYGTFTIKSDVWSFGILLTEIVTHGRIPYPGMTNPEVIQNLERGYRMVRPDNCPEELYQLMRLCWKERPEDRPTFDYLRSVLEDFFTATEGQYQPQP

As for `Cc1cc2cc(C(=O)c3cnn(-c4ccc(Oc5ccccc5F)cc4C)c3N)[nH]c2cc1NS(=O)(=O)CC(=O)N1CCOCC1` [Example 4-10-007, N-{2-{5-amino-1-[4-(2-fluorophenoxy)-2-methylphenyl]pyrazole-4-carbonyl}-5-methyl-1H-indol-6-yl}-2-morpholin-4-yl-2-oxoethanesulfonamide], the results for the pIC50 in assay [1], in assay [2] and in assay [3] were 9.32, 7.89 and 8.07, respectively.

On to `Cc1cc2cc(C(=O)c3cnn(-c4ccc(Oc5ccccc5F)cc4C)c3N)[nH]c2cc1NS(=O)(=O)CC(=O)NC(C)C` [Example 4-10-008, 2-[[2-[5-amino-1-[4-(2-fluorophenoxy)-2-methylphenyl]pyrazole-4-carbonyl]-5-methyl-1H-indol-6-yl]sulfamoyl]-N-propan-2-ylacetamide], for which the pIC50 in assay [1] was 8.70; in assay [2], 7.27; in assay [3] it was 8.02.

On to `Cc1cc2cc(C(=O)c3cnn(-c4c(C)cc(Oc5ccccc5F)cc4F)c3N)[nH]c2cc1NS(=O)(=O)CC(=O)N1CCOCC1` [Example 4-10-009, N-[2-[5-amino-1-[2-fluoro-4-(2-fluorophenoxy)-6-methylphenyl]pyrazole-4-carbonyl]-5-methyl-1H-indol-6-yl]-2-morpholin-4-yl-2-oxoethanesulfonamide], for which the figures for the pIC50 in assay [1], in assay [2] and in assay [3] were 8.57, 7.48 and 7.72, respectively.

`Cc1cc2cc(C(=O)c3cnn(-c4cnc(Oc5c(F)cccc5F)cc4C)c3N)[nH]c2cc1NS(=O)(=O)CC(=O)N1CCOCC1` [Example 4-10-010, N-[2-[5-amino-1-[6-(2,6-difluorophenoxy)-4-methylpyridin-3-yl]pyrazole-4-carbonyl]-5-methyl-1H-indol-6-yl]-2-morpholin-4-yl-2-oxoethanesulfonamide]: the figures for the pIC50 in assay [1], in assay [2] and in assay [3] were 8.89, 7.59 and 8.15, respectively.

On to `COc1cc2cc(C(=O)c3cnn(-c4ccc(Oc5ccccc5F)cc4C)c3N)[nH]c2cc1NS(=O)(=O)CC(=O)NC(C)C` [Example 4-10-011, 2-[[2-[5-amino-1-[4-(2-fluorophenoxy)-2-methylphenyl]pyrazole-4-carbonyl]-5-methoxy-1H-indol-6-yl]sulfamoyl]-N-propan-2-ylacetamide], for which the values for the pIC50 in assay [1], in assay [2] and in assay [3] were 9.19, 7.60 and 8.42, respectively.

For `COc1cc2cc(C(=O)c3cnn(-c4ccc(Oc5ccccc5F)cc4C)c3N)[nH]c2cc1NS(=O)(=O)CC(=O)N1CCOCC1` [Example 4-10-012, N-[2-[5-amino-1-[4-(2-fluorophenoxy)-2-methylphenyl]pyrazole-4-carbonyl]-5-methoxy-1H-indol-6-yl]-2-morpholin-4-yl-2-oxoethanesulfonamide], the pIC50 was 9.52 in assay [1], 8.01 in assay [2] and 8.29 in assay [3].

For the molecule `COc1cc2cc(C(=O)c3cnn(-c4c(C)cc(Oc5ccccc5F)cc4F)c3N)[nH]c2cc1NS(=O)(=O)CC(=O)N1CCOCC1` [Example 4-10-013, N-[2-[5-amino-1-[2-fluoro-4-(2-fluorophenoxy)-6-methylphenyl]pyrazole-4-carbonyl]-5-methoxy-1H-indol-6-yl]-2-morpholin-4-yl-2-oxoethanesulfonamide], the pIC50 was 8.92 in assay [1], 7.54 in assay [2] and 7.96 in assay [3].

Turning to `COc1cc2cc(C(=O)c3cnn(-c4cnc(Oc5ccccc5F)cc4C)c3N)[nH]c2cc1NS(=O)(=O)CC(=O)N1CCCC1` [Example 4-10-014, N-[2-[5-amino-1-[6-(2-fluorophenoxy)-4-methylpyridin-3-yl]pyrazole-4-carbonyl]-5-methoxy-1H-indol-6-yl]-2-oxo-2-pyrrolidin-1-ylethanesulfonamide], the pIC50 in assay [1] is 9.27; in assay [2], 7.54; in assay [3] it was 8.00.

Regarding `COc1cc2cc(C(=O)c3cnn(-c4cnc(Oc5ccccc5F)cc4C)c3N)[nH]c2cc1NS(=O)(=O)CC(=O)NC(C)C` [Example 4-10-015, 2-[[2-[5-amino-1-[6-(2-fluorophenoxy)-4-methylpyridin-3-yl]pyrazole-4-carbonyl]-5-methoxy-1H-indol-6-yl]sulfamoyl]-N-propan-2-ylacetamide], the pIC50 is 8.96 in assay [1], 7.24 in assay [2] and 8.14 in assay [3].

Consider `COc1cc2cc(C(=O)c3cnn(-c4cnc(Oc5ccccc5F)cc4C)c3N)[nH]c2cc1NS(=O)(=O)CC(=O)N1CCOCC1` [Example 4-10-016, N-[2-[5-amino-1-[6-(2-fluorophenoxy)-4-methylpyridin-3-yl]pyrazole-4-carbonyl]-5-methoxy-1H-indol-6-yl]-2-morpholin-4-yl-2-oxoethanesulfonamide], for which the values for the pIC50 in assay [1], in assay [2] and in assay [3] were 9.23, 7.77 and 8.24, respectively.

Take `COc1cc2cc(C(=O)c3cnn(-c4cnc(Oc5c(F)cccc5F)cc4C)c3N)[nH]c2cc1NS(=O)(=O)CC(=O)N1CCCC1` [Example 4-10-017, N-[2-[5-amino-1-[6-(2,6-difluorophenoxy)-4-methylpyridin-3-yl]pyrazole-4-carbonyl]-5-methoxy-1H-indol-6-yl]-2-oxo-2-pyrrolidin-1-ylethanesulfonamide]: the pIC50 in assay [1] was 9.03; in assay [2], 7.49; in assay [3], 7.96.

Take `COc1cc2cc(C(=O)c3cnn(-c4cnc(Oc5ccccc5F)cc4C)c3N)[nH]c2cc1NC(C)=O` [Example 4-11-001, N-{2-{5-amino-1-[6-(2-fluorophenoxy)-4-methylpyridin-3-yl]pyrazole-4-carbonyl}-5-methoxy-1H-indol-6-yl}acetamide]: the pIC50 was 8.82 in assay [1], 7.48 in assay [2] and 8.25 in assay [3].

On to `COc1cc2cc(C(=O)c3cnn(-c4cnc(Oc5ccccc5F)cc4C)c3N)[nH]c2cc1NS(=O)(=O)N1CCOCC1` [Example 4-12-001, N-{2-{5-amino-1-[6-(2-fluorophenoxy)-4-methylpyridin-3-yl]pyrazole-4-carbonyl}-5-methoxy-1H-indol-6-yl}morpholine-4-sulfonamide], for which the results for the pIC50 in assay [1], in assay [2] and in assay [3] were 8.54, 6.85 and 7.35, respectively.

`COc1cc2cc(C(=O)c3cnn(-c4cnc(Oc5ccccc5F)cc4C)c3N)[nH]c2cc1NC(=O)N1CCOCC1` [Example 4-12-002, N-[2-[5-amino-1-[6-(2-fluorophenoxy)-4-methylpyridin-3-yl]pyrazole-4-carbonyl]-5-methoxy-1H-indol-6-yl]morpholine-4-carboxamide]: the pIC50 in assay [1] was 8.49; in assay [2] it was 7.40; in assay [3], 8.10.

As to `COc1cc2cc(C(=O)c3cnn(-c4ccc(Oc5ccccc5F)cc4C)c3N)[nH]c2cc1NS(=O)(=O)N1CCOCC1` [Example 4-12-003, N-[2-[5-amino-1-[4-(2-fluorophenoxy)-2-methylphenyl]pyrazole-4-carbonyl]-5-methoxy-1H-indol-6-yl]morpholine-4-sulfonamide], the pIC50 in assay [1] is 9.27; in assay [2], 7.35; in assay [3] it was 7.85.

As to `COc1cc2cc(C(=O)c3cnn(-c4cnc(Oc5ccccc5F)cc4C)c3N)[nH]c2cc1NS(=O)(=O)CCCF` [Example 4-13-001, N-{2-{5-amino-1-[6-(2-fluorophenoxy)-4-methylpyridin-3-yl]pyrazole-4-carbonyl}-5-methoxy-1H-indol-6-yl}-3-fluoropropane-1-sulfonamide], the pIC50 in assay [1] was 8.62; in assay [2], 7.12; in assay [3], 7.59.

For the molecule `COc1cc2cc(C(=O)c3cnn(-c4ccc(Oc5ccccc5F)cc4C)c3N)[nH]c2cc1NS(=O)(=O)CCCF` [Example 4-13-002, N-[2-[5-amino-1-[4-(2-fluorophenoxy)-2-methylphenyl]pyrazole-4-carbonyl]-5-methoxy-1H-indol-6-yl]-3-fluoropropane-1-sulfonamide], the values for the pIC50 in assay [1], in assay [2] and in assay [3] were 8.62, 7.57 and 7.70, respectively.

In the case of `COc1cc2cc(C(=O)c3cnn(-c4cnc(Oc5ccccc5F)cc4C)c3N)[nH]c2cc1N1CCCS1(=O)=O` [Example 4-14-001, {5-amino-1-[6-(2-fluorophenoxy)-4-methylpyridin-3-yl]pyrazol-4-yl}-[6-(1,1-dioxo-1,2-thiazolidin-2-yl)-5-methoxy-1H-indol-2-yl]methanone], the values for the pIC50 in assay [1], in assay [2] and in assay [3] were 8.92, 7.68 and 8.24, respectively.

As for `COc1cc2cc(C(=O)c3cnn(-c4ccc(Oc5ccccc5F)cc4C)c3N)[nH]c2cc1N1CCCS1(=O)=O` [Example 4-14-002, [5-amino-1-[4-(2-fluorophenoxy)-2-methylphenyl]pyrazol-4-yl]-[6-(1,1-dioxo-1,2-thiazolidin-2-yl)-5-methoxy-1H-indol-2-yl]methanone], the pIC50 in assay [1] was 8.85; in assay [2], 8.06; in assay [3] it was 8.25.

For `Cc1cc2cc(C(=O)c3cnn(-c4cnc(Oc5ccccc5F)cc4C)c3N)[nH]c2cc1NS(=O)(=O)CC(=O)N1CCOCC1` [Example 4-15-001, N-(2-(5-amino-1-(6-(2-fluorophenoxy)-4-methylpyridin-3-yl)-1H-pyrazole-4-carbonyl)-5-methyl-1H-indol-6-yl)-2-morpholino-2-oxoethanesulfonamide], the figures for the pIC50 in assay [1], in assay [2] and in assay [3] were 8.96, 7.74 and 8.00, respectively.
